Consider five molecules from the NIST ThermoML archive (doi:10.1016/j.tca.2004.11.004).

A short description of series [1]: Molar enthalpy of transition or fusion. The conditions noted are these: Crystal; DSC.
The conditions of series [2]: Crystal; DTA.

± gives the expanded uncertainty stated by the source.

With `CC(=O)[O-].[Cs+]` [cesium acetate], in series [1], the “Molar enthalpy of transition or fusion” value is 2.63 ± 0.0956 kcal/mol. Besides, in series [2], the Normal melting temperature stood at 191.6 ± 0.4 °C.
Taken in the same sequence, the figures for `CC(=O)[O-].[Li+]` [lithium acetate] were 3.01 ± 0.0956 kcal/mol and 283.5 ± 0.4 °C.
As for `CC(=O)[O-].[K+]` [potassium ethanoate], the “Molar enthalpy of transition or fusion” value in series [1] came out at 2.87 ± 0.0956 kcal/mol. Moreover, the Normal melting temperature in series [2] amounted to 305.2 ± 0.4 °C.
Taken in the same sequence, the figures for `CC(=O)[O-].[Rb+]` [rubidium acetate] were 2.13 ± 0.191 kcal/mol and 240.5 ± 0.4 °C.
Taken in the same sequence, the figures for `CC(=O)[O-].[Na+]` [sodium ethanoate] were 4.16 ± 0.0956 kcal/mol and 329.4 ± 0.4 °C.
